Experimental data from patent publication US9719127B2, “Dual inducible vectors and cell lines” (priority 2012, dated 2017).

How the values were obtained:
X4-tropic viruses = assay: GGR cell G.Luc signal with X4-tropic viruses; format: cell-based, HIV; details: GGR cells, low endogenous CXCR4
[1] = tested on: CCR5-using HIV-1 isolate (live, replication-competent JR-CSF)

Maraviroc
G.Luc signal with X4-tropic viruses under maraviroc (X4-tropic viruses): resistant to maraviroc inhibition | Gaussia luciferase signal of CCR5-mediated infection in the presence of maraviroc [1]: reproducibly reduced
